# Test results published in patent publication US20210379035A1, “Methods Of Treating Fabry Patients Having Renal Impairment” (Amicus Therapeutics, Inc., priority 2017, published 2021).
# Experiments:
# plasma lyso-GB3 [1] = assay: ERT-naïve study: plasma lyso-Gb3; format: in vivo, human
# Procedure: (§1) One study was a 24-month trial, including a 6-month double-blind, placebo-controlled period, in 67 ERT-naïve patients. The other study was an active-controlled, 18-month trial in 57 ERT-experienced patients with a 12-month open-label extension (OLE). Both the ERT-naïve and ERT-experienced studies included Fabry patients having an eGFR of ≥30 mL/min/1.73 m^2.
# (§2) A further analysis of data from these studies examined annualized change in eGFRCKD-EPI, LVMi, WBC α-Gal A activity and plasma lyso-Gb3 levels based on renal function at baseline. The results for each renal subgroup are shown in Table 9 below, with the ERT-naïve study subgroups based on eGFRMDRD and the ERT-experienced study subgroups based on mGFRiohexol.
# [2] = ERT-naïve study population PK from sparse blood sampling; format: in vivo, human; details: ERT-naïve Fabry patients
# Procedure: (§3) Thus, two Fabry patients with renal impairment were evaluated. One patient (P1) had moderate renal impairment, while the other patient (P2) had severe renal impairment. […] The comparison with the results from the ERT-naïve study allows for comparison of PK in the Fabry population with mostly normal, but some mild and a few moderately impaired Fabry patients. None of the patients in the ERT-naïve study had severe renal impairment because these patients were excluded from the study.
# cardiac repolarization = details: 150 mg and 1250 mg single doses; cited from earlier work
# [3] = Plasma migalastat concentration in two Fabry patients with renal impairment (Example 3); format: in vivo, human; details: for concentration at 3 h: 3 Hrs Post
# Procedure: as §3
# α-Gal A [4] = assay: ERT-experienced study: WBC α-Gal A activity; format: in vivo, human; details: Migalastat 0-18 months
# Procedure: as §1
# (§4) A further analysis of data from these studies examined annualized change in eGFRCKD-EPI, LVMi, WBC α-Gal A activity and plasma lyso-Gb3 levels based on renal function at baseline.
# Fabry patients [5] = assay: eGFR (MDRD) in Fabry patient P1; format: in vivo, human; details: P1 on migalastat, moderate impairment
# Procedure: as §3
# plasma lyso-GB3 [6] = assay: ERT-experienced study: plasma lyso-Gb3; format: in vivo, human; details: Migalastat 0-18 months
# Procedure: as §1, §2
# Fabry patients [7] = assay: Long-term analysis of 12 patients that completed multiple studies: eGFR; format: in vivo, human
# Text: In addition to the studies described above, other patients also received migalastat therapy in other studies such as dose-finding studies and/or long-term extension studies. […] 12 patients that completed multiple studies were further analyzed. Linear regression was used to calculate the annualized rate of change in […] from baseline.
# Fabry patients [8] = assay: ERT-naïve study: renal function (eGFR); format: in vivo, human; details: for Annualized Change in eGFRCKD-EPI, mean ± SE: ERT-Naïve; for mean±SEM annualized rate of change of eGFRCKD-EPI: ERT-naïve study, baseline to 18/24 months
# Procedure: One study was a 24-month trial, including a 6-month double-blind, placebo-controlled period, in 67 ERT-naïve patients. The other study was an active-controlled, 18-month trial in 57 ERT-experienced patients with a 12-month open-label extension (OLE). Both the ERT-naïve and ERT-experienced studies included Fabry patients having an eGFR of ≥30 mL/min/1.73 m^2. The study designs for these studies are shown in FIGS. 10A-B. In the ERT-naïve study, the primary efficacy parameter was GL-3 inclusions per kidney interstitial capillary. […] A further analysis of data from these studies examined annualized change in […], WBC α-Gal A activity and plasma lyso-Gb3 levels based on renal function at baseline. The results for each renal subgroup are shown in Table 9 below, with the ERT-naïve study subgroups based on […] and the ERT-experienced study subgroups based on mGFRiohexol.
# α-Gal A [9] = assay: ERT-naïve study: WBC α-Gal A activity; format: in vivo, human
# Procedure: as §1, §4
# Fabry patients [10] = assay: Analysis of 52 ERT-naive patients by baseline proteinuria: eGFR; format: in vivo, human; details: for Annualized eGFRCKD-EPI Change Rate, Mean (SE): ERT-naive, migalastat HCl 150 mg QOD ≥17 months; for Annualized eGFR Rate of Change (eGFRMDRD), Mean (SEM): Migalastat cohort
# Procedure: Another analysis was performed on patients who participated in multiple studies for the use of migalastat. […] Results for […] were compared with changes in […] reported in the literature for untreated patients with Fabry disease (natural history cohort; Schiffmann R et al. Nephrol Dial Transplant. 2009; 24:2102-11) and are shown in Table 15 below: […]
# [11] = Additional simulations on renal impairment subjects (Example 4); design: species or system human; details: simulation
# Fabry patients [12] = assay: ERT-experienced study: LVMi; format: in vivo, human; details: Migalastat 0-18 months
# Procedure: as §1, §2
# [13] = Migalastat→Migalastat 0-24 months, renal subgroup 30 to < 60
# [14] = Migalastat→Migalastat 0-24 months, renal subgroup ≥60
# [15] = Placebo→Migalastat 6-24 months, renal subgroup ≥60
# [16] = P1, second measurement set 6 months after the first
# [17] = Placebo→Migalastat 6-24 months, renal subgroup 30 to < 60
# [18] = Females, baseline urine protein 100-1000 mg/24 h
# [19] = Females, baseline urine protein <100 mg/24 h
# [20] = Females, baseline urine protein >1000 mg/24 h
# [21] = Males, baseline urine protein 100-1000 mg/24 h
# [22] = Males, baseline urine protein <100 mg/24 h
# [23] = Males, baseline urine protein >1000 mg/24 h
smiles,measurement,setting,value
"OC[C@H]1NC[C@H](O)[C@@H](O)[C@H]1O [migalastat, (2R,3S,4R,5S)-2-(hydroxymethyl) piperdine-3,4,5-triol]","Plasma lyso-Gb3, change from baseline, mean",plasma lyso-GB3 [1]; [13],-29.0 nmol/L
same,"Plasma lyso-Gb3, change from baseline, mean",plasma lyso-GB3 [1]; [14],-7.7 nmol/L
same,"Plasma lyso-Gb3, change from baseline, mean",plasma lyso-GB3 [1]; [15],-20.0 nmol/L
same,Comparison to ERT-Naïve Study PK (migalastat concentration),[2]; Pre-dose (0 h),8.70 ng/mL
same,concentration at 3 h,"[2]; human, plasma, 3 Hrs Post",1180 ng/mL
same,concentration at 48 h,"[2]; human, plasma, 48 h",8.7 ng/mL
same,effect on cardiac repolarization,cardiac repolarization,negative
same,increase of C48 concentration,[3]; [16],49%
same,increase of Cmax,[3]; [16],33%
same,concentration at 3 h,"[3]; human, plasma, Migalastat Conc 6 months later, Fabry patient P1, moderate renal impairment",2160 ng/mL
same,concentration at 24 h,"[3]; human, plasma, Migalastat Conc 6 months later, Fabry patient P1, moderate renal impairment, 24 Hrs Post",211 ng/mL
same,concentration at 48 h,"[3]; human, plasma, Migalastat Conc 6 months later, Fabry patient P1, moderate renal impairment, 48 Hrs Post",62.4 ng/mL
same,concentration at 3 h,"[3]; human, plasma, Migalastat Conc, Fabry patient P1, moderate renal impairment",1620 ng/mL
same,concentration at 24 h,"[3]; human, plasma, Migalastat Conc, Fabry patient P1, moderate renal impairment, 24 Hrs Post",168 ng/mL
same,concentration at 48 h,"[3]; human, plasma, Migalastat Conc, Fabry patient P1, moderate renal impairment, 48 Hrs Post",41.8 ng/mL
same,concentration at 2 h,"[3]; human, plasma, Migalastat Concentration, Fabry patient P2, severe renal impairment, 2 h, Occasion 1",564 ng/mL
same,concentration at 24 h,"[3]; human, plasma, Migalastat Concentration, Fabry patient P2, severe renal impairment, 24 h, Occasion 2",569 ng/mL
same,concentration at 48 h,"[3]; human, plasma, Migalastat Concentration, Fabry patient P2, severe renal impairment, 48 h, Occasion 1",322 ng/mL
same,concentration at 48 h,"[3]; human, plasma, Migalastat Concentration, Fabry patient P2, severe renal impairment, 48 h, Occasion 2",260 ng/mL
same,"WBC α-Gal A Activity (males only), change from baseline, mean ± SE",α-Gal A [4]; renal subgroup 30 to < 60,+4.6 ± 2.3 4MU/hr/mg
same,"WBC α-Gal A Activity (males only), change from baseline, mean ± SE",α-Gal A [4]; renal subgroup ≥60,+5.5 ± 1.4 4MU/hr/mg
same,eGFRMDRD,Fabry patients [5],32 mL/min
same,"Plasma lyso-Gb3, change from baseline, mean",plasma lyso-GB3 [6]; renal subgroup 30 to < 60,+0.5 nmol/L
same,"Plasma lyso-Gb3, change from baseline, mean",plasma lyso-GB3 [6]; renal subgroup ≥60,1.9 nmol/L
same,Annualized Rate of Change in eGFRCKD-EPI,"Fabry patients [7]; entire duration of migalastat treatment, Patient 1",−0.853 mL/min/1.72 m^2
same,Annualized Rate of Change in eGFRCKD-EPI,"Fabry patients [7]; entire duration of migalastat treatment, Patient 2",0.584 mL/min/1.72 m^2
same,Annualized Rate of Change in eGFRCKD-EPI,"Fabry patients [7]; entire duration of migalastat treatment, Patient 3",−2.838 mL/min/1.72 m^2
same,Annualized Rate of Change in eGFRCKD-EPI,"Fabry patients [7]; entire duration of migalastat treatment, Patient 4",0.488 mL/min/1.72 m^2
same,Annualized Rate of Change in eGFRCKD-EPI,"Fabry patients [7]; entire duration of migalastat treatment, Patient 5",0.001 mL/min/1.72 m^2
same,Annualized Rate of Change in eGFRCKD-EPI,"Fabry patients [7]; entire duration of migalastat treatment, Patient 6",−2.179 mL/min/1.72 m^2
same,Annualized Rate of Change in eGFRCKD-EPI,"Fabry patients [7]; entire duration of migalastat treatment, Patient 7",−0.704 mL/min/1.72 m^2
same,Annualized Rate of Change in eGFRCKD-EPI,"Fabry patients [7]; entire duration of migalastat treatment, Patient 8",−1.09 mL/min/1.72 m^2
same,Annualized Rate of Change in eGFRCKD-EPI,"Fabry patients [7]; entire duration of migalastat treatment, Patient 9",−0.443 mL/min/1.72 m^2
same,Annualized Rate of Change in eGFRCKD-EPI,"Fabry patients [7]; entire duration of migalastat treatment, Patient 10",0.219 mL/min/1.72 m^2
same,Annualized Rate of Change in eGFRCKD-EPI,"Fabry patients [7]; entire duration of migalastat treatment, Patient 11",−0.342 mL/min/1.72 m^2
same,Annualized Rate of Change in eGFRCKD-EPI,"Fabry patients [7]; entire duration of migalastat treatment, Patient 12",−0.871 mL/min/1.72 m^2
same,Annualized Rate of Change in eGFRCKD-EPI,"Fabry patients [7]; entire migalastat treatment period (mean exposure 8.2 years), Mean of 12 patients",−0.67 mL/min/1.72 m^2
same,"Annualized Change in eGFRCKD-EPI, mean ± SE",Fabry patients [8]; [13],+3.2 ± 1.1 mL/min/1.73 m^2
same,"Annualized Change in eGFRCKD-EPI, mean ± SE",Fabry patients [8]; [14],−0.7 ± 0.6 mL/min/1.73 m^2
same,"Annualized Change in eGFRCKD-EPI, mean ± SE",Fabry patients [8]; [17],−2.8 ± 2.8 mL/min/1.73 m^2
same,"Annualized Change in eGFRCKD-EPI, mean ± SE",Fabry patients [8]; [15],+0.1 ± 0.7 mL/min/1.73 m^2
same,mean±SEM annualized rate of change of eGFRCKD-EPI,Fabry patients [8]; mild renal impairment,−0.8±1.01 mL/min/1.73 m^2/year
same,mean±SEM annualized rate of change of eGFRCKD-EPI,Fabry patients [8]; moderate renal impairment,−0.7±3.97 mL/min/1.73 m^2/year
same,mean±SEM annualized rate of change of eGFRCKD-EPI,Fabry patients [8]; normal renal function,0.2±0.90 mL/min/1.73 m^2/year
same,"WBC α-Gal A Activity (males only), change from baseline",α-Gal A [9]; [13],+1.4 4MU/hr/mg
same,"WBC α-Gal A Activity (males only), change from baseline, mean ± SE",α-Gal A [9]; [14],+1.6 ± 1.5 4MU/hr/mg
same,"WBC α-Gal A Activity (males only), change from baseline, mean ± SE",α-Gal A [9]; [17],+4.0 ± 3.0 4MU/hr/mg
same,"WBC α-Gal A Activity (males only), change from baseline, mean ± SE",α-Gal A [9]; [15],5.2 4MU/h/mg
same,"Annualized eGFRCKD-EPI Change Rate, Mean (SE)",Fabry patients [10]; [18],−0.3 (1.0) mL/min/1.73 m^2
same,"Annualized eGFRCKD-EPI Change Rate, Mean (SE)",Fabry patients [10]; [19],−0.9 (0.4) mL/min/1.73 m^2
same,"Annualized eGFRCKD-EPI Change Rate, Mean (SE)",Fabry patients [10]; [20],−2.2 (1.3) mL/min/1.73 m^2
same,"Annualized eGFRCKD-EPI Change Rate, Mean (SE)",Fabry patients [10]; [21],0.2 (0.8) mL/min/1.73 m^2
same,"Annualized eGFRCKD-EPI Change Rate, Mean (SE)",Fabry patients [10]; [22],0.4 (1.0) mL/min/1.73 m^2
same,"Annualized eGFRCKD-EPI Change Rate, Mean (SE)",Fabry patients [10]; [23],−5.1 (0.1) mL/min/1.73 m^2
same,"Annualized eGFR Rate of Change (eGFRMDRD), Mean (SEM)",Fabry patients [10]; [18],1.3 (1.5) mL/min/m^2
same,"Annualized eGFR Rate of Change (eGFRMDRD), Mean (SEM)",Fabry patients [10]; [19],−0.9 (0.5) mL/min/m^2
same,"Annualized eGFR Rate of Change (eGFRMDRD), Mean (SEM)",Fabry patients [10]; [20],−1.7 (1.1) mL/min/m^2
same,"Annualized eGFR Rate of Change (eGFRMDRD), Mean (SEM)",Fabry patients [10]; [21],0.9 (1.0) mL/min/m^2
same,"Annualized eGFR Rate of Change (eGFRMDRD), Mean (SEM)",Fabry patients [10]; [22],1.2 (1.2) mL/min/m^2
same,"Annualized eGFR Rate of Change (eGFRMDRD), Mean (SEM)",Fabry patients [10]; [23],−4.3 (0.1) mL/min/m^2
same,AUC Ratio,[11]; Mild (>=60-<90) vs Normal,1.2
same,AUC Ratio,[11]; Moderate (>=30-<60) vs Normal,1.9
same,AUC Ratio,[11]; Severe (<30) vs Normal,4.8
same,"LVMi, change from baseline, mean ± SE",Fabry patients [12]; renal subgroup 30 to < 60,−10.2 ± 2.4 gm^2
same,"LVMi, change from baseline, mean ± SE",Fabry patients [12]; renal subgroup ≥60,−4.8 ± 2.3 gm^2
